Source: ChEMBL document CHEMBL4765344, “Expanding the anticancer potential of 1,2,3-triazoles via simultaneously targeting Cyclooxygenase-2, 15-lipoxygenase and tumor-associated carbonic anhydrases” (Eur J Med Chem, 2020)
Active and inactive are the calls of the source. The calls are words filed in the database; no cut-off is given here.

Tests used:
[1] = test system: HepG2; assay: Antiproliferative activity against human HepG2 cells assessed as inhibition of cell growth at 100 microM measured after 72 hrs by SRB assay; type: functional
[2] = test system: MCF7; assay: Antiproliferative activity against human MCF-7 cells assessed as cell growth inhibition measured after 72 hrs by SRB assay; type: functional, cell-based; settings: MCF7, 72 h
[3] = test system: WI-38; assay: Cytotoxicity against human WI-38 cells assessed as reduction in cell viability after 72 hrs by SRB assay; type: cell-based; settings: WI-38, 72 h
[4] = test system: HepG2; assay: Antiproliferative activity against human HepG2 cells assessed as cell growth inhibition measured after 72 hrs by SRB assay; type: functional, cell-based; settings: HepG2, 72 h
[5] = test system: MCF7; assay: Antiproliferative activity against human MCF-7 cells assessed as inhibition of cell growth at 100 microM measured after 72 hrs by SRB assay; type: functional
[6] = test system: A549; assay: Antiproliferative activity against human A549 cells assessed as inhibition of cell growth at 100 microM measured after 72 hrs by SRB assay; type: functional
[7] = test system: A549; assay: Antiproliferative activity against human A549 cells assessed as cell growth inhibition measured after 72 hrs by SRB assay; type: functional, cell-based; settings: A549, 72 h
[8] = molecular target: T1, Prostaglandin G/H synthase 1 (Ovis aries, UniProt P05979); assay: Inhibition of ovine COX1 by colorimetric analysis
T1 sequence (P05979 whole entry): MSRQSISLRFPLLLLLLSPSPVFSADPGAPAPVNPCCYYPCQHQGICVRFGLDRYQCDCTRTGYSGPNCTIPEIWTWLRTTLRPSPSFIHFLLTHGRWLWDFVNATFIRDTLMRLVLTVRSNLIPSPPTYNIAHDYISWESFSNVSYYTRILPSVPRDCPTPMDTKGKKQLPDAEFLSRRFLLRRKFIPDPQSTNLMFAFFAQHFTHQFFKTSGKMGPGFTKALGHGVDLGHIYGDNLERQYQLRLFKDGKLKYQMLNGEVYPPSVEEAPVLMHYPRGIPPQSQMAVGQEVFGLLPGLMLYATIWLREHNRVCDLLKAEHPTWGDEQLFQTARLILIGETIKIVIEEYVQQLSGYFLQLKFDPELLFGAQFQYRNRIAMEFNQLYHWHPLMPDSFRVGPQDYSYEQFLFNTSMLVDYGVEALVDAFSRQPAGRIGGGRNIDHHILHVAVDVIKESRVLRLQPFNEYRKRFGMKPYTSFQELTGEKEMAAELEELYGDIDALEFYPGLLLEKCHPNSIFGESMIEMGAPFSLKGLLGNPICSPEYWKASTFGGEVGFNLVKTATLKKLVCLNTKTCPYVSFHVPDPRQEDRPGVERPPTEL

[9] = Inhibition of soya bean 15-LOX; design: species or system Glycine max
[10] = molecular target: Carbonic anhydrase 9 (Homo sapiens, UniProt Q16790); assay: Inhibition of human CA9 by stopped-flow carbon dioxide hydration assay
[11] = molecular target: Carbonic anhydrase 2 (Homo sapiens, UniProt P00918); assay: Inhibition of human CA2 by stopped-flow carbon dioxide hydration assay
[12] = molecular target: Carbonic anhydrase 12 (Homo sapiens, UniProt O43570); assay: Inhibition of human CA12 by stopped-flow carbon dioxide hydration assay
[13] = molecular target: Carbonic anhydrase 1 (Homo sapiens, UniProt P00915); assay: Inhibition of human CA1 by stopped-flow carbon dioxide hydration assay
[14] = test system: THP-1; assay: Cytotoxicity against PMA/LPS-challenged human THP1 cells assessed as reduction in cell viability incubated for 24 hrs by MTS assay; type: functional, cell-based; settings: THP-1, 24 h
[15] = test system: HT-29; assay: Cytotoxicity against human HT-29 cells assessed as reduction in cell viability incubated for 24 hrs by MTS assay; type: functional, cell-based; settings: HT-29, 24 h

Carbonic anhydrase 12, sequence (O43570 whole entry): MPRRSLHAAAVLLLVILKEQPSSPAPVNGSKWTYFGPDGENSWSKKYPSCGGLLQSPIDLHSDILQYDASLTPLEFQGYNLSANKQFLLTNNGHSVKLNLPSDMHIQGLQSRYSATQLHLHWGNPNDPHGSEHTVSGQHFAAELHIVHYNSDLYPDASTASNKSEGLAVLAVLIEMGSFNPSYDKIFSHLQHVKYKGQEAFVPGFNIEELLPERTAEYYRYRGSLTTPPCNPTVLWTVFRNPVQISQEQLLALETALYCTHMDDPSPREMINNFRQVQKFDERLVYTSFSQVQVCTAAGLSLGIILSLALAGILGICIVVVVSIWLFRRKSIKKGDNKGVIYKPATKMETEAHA
Carbonic anhydrase 1, sequence (P00915 whole entry): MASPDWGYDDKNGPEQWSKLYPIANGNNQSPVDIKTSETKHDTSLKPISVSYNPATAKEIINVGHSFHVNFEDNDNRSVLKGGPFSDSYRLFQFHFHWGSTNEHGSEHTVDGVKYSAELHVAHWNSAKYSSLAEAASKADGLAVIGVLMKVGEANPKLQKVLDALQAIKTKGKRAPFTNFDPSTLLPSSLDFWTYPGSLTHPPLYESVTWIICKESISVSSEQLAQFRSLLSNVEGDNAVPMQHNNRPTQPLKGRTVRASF

Compound | inhibition at 100 µM [1] [%] | IC50 [2] [µM] | IC50 [3] [µM] | IC50 [4] [µM] | inhibition at 100 µM [5] [%] | inhibition at 100 µM [6] [%] | IC50 [7] [µM] | IC50 [8] [µM] | IC50 [9] [µM] | Ki [10] [µM] | Ki [11] [µM] | Ki [12] [µM] | Ki [13] [µM] | IC50 [14] [µM] | IC50 [15] [µM] | inhibition [6] | inhibition [1]
Cc1ccc(-c2cc(C(F)(F)F)nn2-c2ccc(S(N)(=O)=O)cc2)cc1 [CELECOXIB] | 77.9 | 2.56 | 433 | 0.36 | 89.9 | 86.2 | 17.5 |  |  |  |  |  |  |  |  |  | 
C/C(=N\NC(N)=O)c1nnn(-c2ccc(F)cc2)c1C |  |  |  |  |  |  |  | 8.4 | 4.72 |  |  |  |  |  |  |  | 
C/C(=N\Nc1nc(-c2ccc(Cl)cc2)cs1)c1nnn(-c2ccc(S(=O)(=O)Nc3nccs3)cc2)c1C | 56 |  | 468 | 89.5 | 39.9 | 51.1 | 99.3 | 14.2 | 1.19 | > 100 | > 100 | > 100 | > 100 |  |  |  | 
CC(=O)c1nnn(-c2ccc(C(=O)O)cc2)c1C |  |  |  |  |  |  |  | 6.4 | 5.14 |  |  |  |  |  |  |  | 
C/C(=N\NC(N)=O)c1nnn(-c2ccc(S(=O)(=O)Nc3nccs3)cc2)c1C |  |  |  |  |  |  |  | 7.9 | 6.52 | > 100 | 6.86 | > 100 | 46.3 |  |  |  | 
O=C(O)Cc1ccccc1Nc1c(Cl)cccc1Cl [DICLOFENAC SODIUM] |  |  |  |  |  |  |  |  |  |  |  |  |  | 201 | 137 |  | 
CC(=O)c1nnn(-c2ccc(S(N)(=O)=O)cc2)c1C | 3.61 |  | 391 |  | 17.7 |  |  | 7.6 | 3.65 | 9.12 | 0.0079 | 0.0826 | 0.073 |  |  | inactive | 
C/C(=N\NC(N)=S)c1nnn(-c2ccc(F)cc2)c1C | 19.8 |  | 406 |  | 6.52 |  |  | 9.6 | 2.42 | > 100 | > 100 | > 100 | > 100 |  |  | inactive | 
O=c1c(O)c(-c2ccc(O)c(O)c2)oc2cc(O)cc(O)c12 [QUERCETIN] |  |  |  |  |  |  |  |  | 3.34 |  |  |  |  |  |  |  | 
C/C(=N\NC(N)=O)c1nnn(-c2ccc(S(N)(=O)=O)cc2)c1C |  |  | 365 |  | 5.8 | 18.2 |  | 5.9 | 4.74 | 4.22 | 0.0164 | 0.0198 | 0.213 |  |  |  | inactive
C/C(=N\NC(N)=S)c1nnn(-c2ccc(S(=O)(=O)Nc3nccs3)cc2)c1C | 22.1 |  | 458 |  | 20.7 | 11.3 |  | 10.3 | 1.69 | > 100 |  | > 100 | > 100 |  |  |  | 
CC(=O)c1nnn(-c2ccc(F)cc2)c1C |  |  |  |  |  |  |  | 7.3 | 4.75 |  |  |  |  |  |  |  | 
C/C(=N\NC(N)=S)c1nnn(-c2ccc(C(=O)O)cc2)c1C |  |  | 480 |  | 46.6 |  |  | 11.6 | 1.65 | > 100 |  | > 100 | > 100 |  |  | inactive | inactive
C/C(=N\NC(N)=S)c1nnn(-c2ccc(S(N)(=O)=O)cc2)c1C |  |  | 378 |  | 36.1 | 3.88 |  | 13 | 1.51 | 7.27 |  | 0.0153 | 0.0835 |  |  |  | inactive
CC(=O)c1nnn(-c2ccc(Cl)cc2)c1C |  |  |  |  |  |  |  | 7.9 | 3.65 |  |  |  |  |  |  |  | 
Cc1c(-c2nn(-c3ccccc3)cc2/C=N/O)nnn1-c1ccc(S(N)(=O)=O)cc1 | 12.5 |  | 450 |  | 43.5 |  |  | 13.9 | 1.91 | > 100 | 7.71 | > 100 | 18.3 |  |  | inactive | 
Cc1c(-c2nn(-c3ccccc3)cc2/C=N/O)nnn1-c1ccc(Cl)cc1 | 79 | 22 | 402 | 26.5 | 97.8 | 69.7 | 55.7 | 12.9 | 1.47 | > 100 | > 100 | > 100 | > 100 |  |  |  | 
C/C(=N\NC(N)=O)c1nnn(-c2ccc(Cl)cc2)c1C |  |  |  |  |  |  |  | 5.6 | 6.84 |  |  |  |  |  |  |  | 
C/C(=N\NC(N)=O)c1nnn(-c2ccc(C(=O)O)cc2)c1C |  |  |  |  |  |  |  | 6.9 | 4.51 |  |  |  |  |  |  |  | 
C/C(=N\Nc1nc(-c2ccc(Cl)cc2)cs1)c1nnn(-c2ccc(C(=O)O)cc2)c1C | 1.41 |  | 461 |  | 40.4 | 67 | 73.1 | 10.9 | 1.76 | > 100 |  | > 100 | 0.551 |  |  |  | 
C/C(=N\NC(N)=S)c1nnn(-c2ccc(Cl)cc2)c1C |  |  |  |  |  |  |  | 7.9 | 5.33 |  |  |  |  |  |  |  | 
CC(=O)c1nnn(-c2ccc(S(=O)(=O)Nc3nccs3)cc2)c1C |  |  |  |  |  |  |  | 5.8 | 4.72 | > 100 |  | > 100 | 51 |  |  |  | 
Cc1c(-c2nn(-c3ccccc3)cc2/C=N/O)nnn1-c1ccc(F)cc1 | 89 | 5.32 | 393 | 31.1 | 98.2 | 92.4 | 27 | 10.9 | 1.98 | > 100 | > 100 | > 100 | > 100 |  |  |  | 
C/C(=N\Nc1nc(-c2ccc(Cl)cc2)cs1)c1nnn(-c2ccc(F)cc2)c1C | 20.7 |  | 414 |  | 33.5 | 11.9 |  | 11.9 | 1.83 |  |  |  |  |  |  |  | 
